Measured values: patent US12187739B2, “Diaryl macrocycle polymorph” (TURNING POINT THERAPEUTICS, INC., priority 2015, dated 2025)

Experiments:
[1] = tested on: KM 12 cells (harboring endogenous TPM3-TRKA fusion gene); test: cells; conditions: Homo sapiens, KM12, 72 h, read-out: KM 12 cell prolif. IC50 (nM)
Procedure: Colorectal cell lines KM 12 (harboring endogenous TPM3-TRKA fusion gene) cells were cultured in DMEM medium, supplemented with 10% fetal bovine serum and 100 U/mL of penicillin/streptomycin. 5000 cells were seeded in 384 well white plate for 24 hours before compounds treatment. Cell proliferation was measured using CellTiter-Glo luciferase-based ATP detection assay (Promega) following the manufactures's protocol after 72 hours incubation. IC50 determinations were performed using GraphPad Prism software (GraphPad, Inc., San Diego, CA).
5000 cells were seeded in 384 well white plate for 24 hours before compounds treatment. Cell proliferation was measured using CellTiter-Glo luciferase-based ATP detection assay (Promega) following the manufactures's protocol after 72 hours incubation. IC50 determinations were performed using GraphPad Prism software (GraphPad, Inc., San Diego, CA).

[2] = tested on: SET-2 cells (harboring endogenous JAK2 V618F point mutation); test: SET-2 cell proliferation assay (CellTiter-Glo); type: cell-based; conditions: Homo sapiens, SET-2 essential thrombocythemia cells, 72 hours incubation, read-out: SET2 cell proli. IC50
Procedure: Essential thrombocythemia cell line SET-2 cells (harboring endogenous JAK2 V618F point mutation) or T cell lymphoma Karpas-299 cell line (harboring endogenous NPM-ALK fusion gene) were cultured in RPMI medium, supplemented with 10% fetal bovine serum and 100 U/mL of penicillin/streptomycin. 5000 cells were seeded in 384 well white plate for 24 hours before compounds treatment. Cell proliferation was measured using CellTiter-Glo luciferase-based ATP detection assay (Promega) following the manufactures's protocol after 72 hours incubation. IC50 determinations were performed using GraphPad Prism software (GraphPad, Inc., San Diego, CA).

[3] = tested on: Ba/F3-EML4-ALK wild type cell line; test: EML4-ALK Ba/F3 stable cell line proliferation assay (CellTiter-Glo); type: cell-based; conditions: Ba/F3 cells with EML4-ALK wild-type (variant 1), 48 hours incubation; read-out: EML4-ALK Ba/F3 cell proli. IC50
Procedure: The EML4-ALK wild-type gene (variant 1) was synthesized at GenScript and cloned into pCDH-CMV-MCS-EF1-Puro plasmid (System Biosciences, Inc). Ba/F3-EML4-ALK wild type cell line was generated by infecting Ba/F3 cells with lentivirus containing EML4-ALK wide-type. Stable cell lines were selected by puromycin treatment, followed by IL-3 withdrawal. 5000 cells were seeded in 384 well white plate overnight before compound treatment.

C[C@H]1CNC(=O)c2cnn3ccc(nc23)N[C@H](C)c2cc(F)ccc2O1 [Compound I, (7S,13R)-11-fluoro-7,13-dimethyl-6,7,13,14-tetrahydro-1,15-ethenopyrazolo[4,3-f][1,4,8,10]benzoxatriazacyclotridecin-4(5H)-one]
IC50 [1]: 0.5 nM
IC50 [2]: 0.242 µM
IC50 [3]: 0.0211 µM
